“Also recorded” adds a separate entry of the source. Peptide text beside a SMILES is read from it.

As a reminder, the IC50 is the concentration that gives 50% inhibition. Read a low IC50 as inhibition by little substance.

One data set has as its system HEK293T cells. Put plainly: Cell viability assay, HEK293T. The data set is classed as cell-based, human. Conditions: Antp-TPR; normal cells HEK293T; mean of three independent experiments each in triplicate; 72 h (Figure 2).
Another data set has as its system PE cells. Put plainly: Cell viability assay, PE. Conditions: Antp-TPR; normal cells PE; mean of three independent experiments each in triplicate; 72 h (Figure 2). The data set is classed as cell-based, human.
The next data set has as its system BT20 cells. Put plainly: Cell viability assay, BT20. The format is cell-based, human. Conditions: Antp-TPR; breast cancer BT20; mean of three independent experiments each in triplicate; 72 h (Figure 2).
A further data set concerns MDA-MB-231 cells. Put plainly: Cell viability assay, MDA-MB-231. The data set is classed as cell-based, human. Conditions: Antp-TPR; breast cancer MDA-MB-231; mean of three independent experiments each in triplicate; 72 h (Figure 2).
In another data set the test system is BXPC3 cells. Put plainly: Cell viability assay, BXPC3. The format is cell-based, human. Conditions: Antp-TPR; pancreatic cancer BXPC3; mean of three independent experiments each in triplicate; 72 h (Figure 2).
In another data set the test system is A549 cells. Put plainly: Cell viability assay, A549. To be noted: Antp-TPR; lung cancer A549; mean of three independent experiments each in triplicate; 72 h (Figure 2). The format is cell-based, human.
The subject of another data set is liver, kidney, and lung. Put plainly: Histologic examination of organs (H & E). The data set is classed as in vivo, athymic nude mice. To be noted: 5 mg/kg i.v., nine times, versus saline. From the text:
(A) BXPC3 pancreatic cancer cells were implanted subcutaneously into athymic nude mice. […] Each group had six animals (n = 6), and experiments were repeated twice. Data are expressed as mean ± SD. […] Scale bars, 25 μm. (C) Histologic examination after treatment with Antp-TPR hybrid peptide.

Data set [1] can be described thus: Observation of behavior and appetite after treatment. The data set is classed as in vivo. To be noted: mice.
Another data set has as its system MRC5 cells. Conditions: Antp-TPR; normal cells MRC5; mean of three independent experiments each in triplicate; 72 h (Figure 2).
A further data set relates to Caki-1 cells. To be noted: Antp-TPR; renal cancer Caki-1; mean of three independent experiments each in triplicate; 72 h (Figure 2).
Another data set has as its system LNcap cells. Conditions: Antp-TPR; prostate cancer LNcap; mean of three independent experiments each in triplicate; 72 h (Figure 2).
The next data set concerns OE19 cells. To be noted: Antp-TPR; gastric cancer OE19; mean of three independent experiments each in triplicate; 72 h (Figure 2).
The test system of data set [2] is normal human cell lines (HEK293T, MRC5, and PE). Put plainly: Cell viability assay, normal cell lines (panel). To be noted: identical concentrations, 72 h.
Excerpt: (§1) The following human tumor and normal cell lines were obtained from the American Type Culture Collection (ATCC): human breast cancer (BT-20, T47D, and MDA-MB-231), lung cancer (A549), kidney cancer (Caki-1), prostate cancer (LNCap), gastric cancer (OE19) and lung fibroblast (MRC5). Human pancreatic cancer cell line (BXPC3) was purchased from the European Collection of Cell Culture (ECACC). Human embryonic kidney cell line (HEK293T) and human normal pancreatic epithelial (PE) cell line ACBRI 515 were purchased from RIKEN cell bank and DS Pharma Biomedical, respectively. Cells were cultured in RPMI-1640 (BT-20, MDA-MB-231, T47D, LNCap, OE19, and BXPC3), MEM (MRC5 and A549), DMEM (HEK293T and Caki-1) or CSC (PE) containing 10% fetal bovine serum (FBS), 100 μg/ml penicillin, and 100 μg/ml streptomycin.
(§2) Cells were seeded on to 96-well plates at 2000-3000 cells/well and incubated with the test peptide. After incubation, an assay for cell viability was carried out using Living Cell Count Reagent SF (Nacalai Tesque) according to the manufacturer's protocol. Absorbance was measured at a wavelength of 450 nm using a 96-well microplate reader (GE Healthcare).
(§3) Data represent the mean ± SD from experiments performed in triplicate.
Data set [3] deals with interaction of Hsp90 with the TPR2A domain of Hop. Put plainly: SPR competition: Hsp90 binding to TPR2A domain of Hop. The data set is classed as biochemical, human. Conditions: Hsp90 1 μM over immobilized TPR2A (5000 RU), peptide 1.4, 14, 140, 280, 700 μM and 1 mM. The method, then: To confirm the presence of purified protein, SDS/PAGE was performed according to the method of Laemmli.
SPR experiments were performed with the Biacore biosensor 3000 system as described previously. Human recombinant Hop, FKBP5, PP5, and purified TPR2A domain of Hop proteins were immobilized on the surface of CM5 sensor chips via N-hydroxysuccinimide and N-ethyl-N'-(dimethylaminopropyl)carbodiimide activation chemistry according to the manufacturer's instructions. Biotin-conjugated TPR peptide (biotin-TPR) was immobilized on the surface of streptavidin (SA) sensor chip. […] HBS-EP buffer (0.01 M Hepes/0.15 M NaCl/0.005% Tween 20/3 mM EDTA, pH 7.4) was used as a running buffer during the assay to inhibit non-specific binding. Data analysis was performed using BIA evaluation version 4.1 software. […] SPR signals obtained in the absence of competing peptides were used as a reference (100% binding) to normalize values obtained in the presence of peptides.
The SPR signal in the absence of competing peptides was used as a reference (100% binding).

Data set [4] relates to normal and cancer cell lines. Put plainly: Cell viability assay, normal and cancer cell lines (panel). The format is cell-based, human. To be noted: 72 h.
Excerpt: as §1, §2, §3

Excerpt for A549 cells: as §1, §2, §3
Excerpt for BT20 cells: as §1, §2, §3
Excerpt for BXPC3 cells: as §1, §2, §3
Excerpt for Caki-1 cells: as §1, §2, §3
Excerpt for HEK293T cells: as §1, §2, §3
Excerpt for LNcap cells: as §1, §2, §3
Excerpt for MDA-MB-231 cells: as §1, §2, §3
Excerpt for MRC5 cells: as §1, §2, §3
Excerpt for OE19 cells: as §1, §2, §3
Excerpt for PE cells: as §1, §2, §3

Take `CC[C@H](C)[C@H](NC(=O)[C@H](CCCNC(=N)N)NC(=O)[C@H](C)NC(=O)[C@H](Cc1ccc(O)cc1)NC(=O)[C@H](C)NC(=O)[C@H](CCCCN)NC(=O)[C@H](CCCCN)NC(=O)[C@H](CCCCN)NC(=O)[C@H](Cc1c[nH]c2ccccc12)NC(=O)[C@H](CCCCN)NC(=O)[C@H](CCSC)NC(=O)[C@H](CCCNC(=N)N)NC(=O)[C@H](CCCNC(=N)N)NC(=O)[C@H](CC(N)=O)NC(=O)[C@H](CCC(N)=O)NC(=O)[C@H](Cc1ccccc1)NC(=O)[C@H](Cc1c[nH]c2ccccc12)NC(=O)[C@@H](NC(=O)[C@H](CCCCN)NC(=O)[C@@H](NC(=O)[C@H](CCC(N)=O)NC(=O)[C@@H](N)CCCNC(=N)N)[C@@H](C)CC)[C@@H](C)CC)C(=O)NCC(=O)N[C@@H](CC(N)=O)C(=O)N[C@@H](CO)C(=O)N[C@@H](Cc1ccc(O)cc1)C(=O)N[C@@H](Cc1ccccc1)C(=O)N[C@@H](CCCCN)C(=O)O` [Antp-TPR] (H-RQIKIWFQNRRMKWKKKAYARIGNSYFK-OH): the IC50 in the data set with HEK293T cells was greater than 100 µM; in the data set with PE cells it was greater than 100 µM; in the data set on BT20 cells it was 37.4 µM; with MDA-MB-231 cells it was 56.9 µM; in the data set on BXPC3 cells it was 44.8 µM; in the data set on A549 cells it was 65.9 µM. Further, the half-inhibitory concentration (IC50) with MRC5 cells is greater than 100 µM; in the data set on Caki-1 cells, 47.9 µM; with LNcap cells, 56.7 µM; with OE19 cells, 33.4 µM. Besides, in the data set with liver, kidney, and lung, the “histologic examination of liver, kidney, and lung” value was “equally unremarkable in the saline or hybrid peptide-treated mice; also recorded: did not cause serious damages to the main organs (liver, kidney, and lung) and normal tissues”. Besides, in data set [1], the “abnormal behaviors or losing of appetite” value is “any abnormal behaviors or losing of appetite after the treatment with this peptide was not also observed”. Also, the “effect on viability of normal cells” value in data set [2] is given as “did not apparently reduce the viability; also recorded: less cytotoxic to normal cells”.
For the compound KAYAAAGNSYFK [TPR mutant 1], the “competition for interaction of Hsp90 with TPR2A domain of Hop” value in data set [3] is “did not demonstrate any protein interaction when analyzed at up to millimolar concentrations”.
Regarding “RQIKIWFQNRRMKWKKKAYAAAGNSYFK [Antp-TPR mutant 1]”, the selective antitumor activity result in data set [4] was “did not show selective antitumor activities”.
On to “RQIKIWFQNRRMKWKKRKFSAAIGYNKY [Antp-scramble, scramble peptide fused to Antennapedia helix III]”, for which the “effect on viability / cytotoxicity” value in data set [4] is “no effect on these cell lines”.
As for `CC[C@H](C)[C@H](NC(=O)[C@H](CCCNC(=N)N)NC(=O)[C@H](C)NC(=O)[C@H](Cc1ccc(O)cc1)NC(=O)[C@H](C)NC(=O)[C@@H](N)CCCCN)C(=O)NCC(=O)N[C@@H](CC(N)=O)C(=O)N[C@@H](CO)C(=O)N[C@@H](Cc1ccc(O)cc1)C(=O)N[C@@H](Cc1ccccc1)C(=O)N[C@@H](CCCCN)C(=O)O` [TPR], the “effect on viability / cytotoxicity” value in data set [4] is “no effect on normal or cancer cells; also recorded: no cytotoxicity”.
As for “RKFSAAIGYNKY [TPR scramble, scramble peptide of TPR]”, the “competition for interaction of Hsp90 with TPR2A domain of Hop” value in [3] is on record as “did not demonstrate any protein interaction when analyzed at up to millimolar concentrations”.
Still for that read-out and setting: in the case of “KAYARIGNSGGG [TPR mutant 2, TPR with last three amino acids, Tyr-Phe-Lys, replaced with three Gly residues]” it was “did not demonstrate any protein interaction when analyzed at up to millimolar concentrations”.
Turning to “RQIKIWFQNRRMKWKKKAYARIGNSGGG [Antp-TPR mutant 2]”, the selective antitumor activity result in data set [4] was “did not show selective antitumor activities”.
